# Assay results reported in patent publication US20070244071A1, “Treatment of proliferative diseases” (MOUNT SINAI HOSPITAL, priority 2006, published 2007).
# Key:
# [1] = system: non-transformed MvLu epithelial cells; assay: Cytotoxicity / cell growth assay, MvLu cells; assay type: cell-based; details: increasing concentrations, DMEM 1% FBS, AlamarBlue, 72 h (source says 48 h)
# Description: In brief, 1000 cells/well were seeded in 96 well plates and cultured for 24 h prior to the addition of DAM-1976. Viable cells were measured at 48 or 72 h by adding of either XTT or AlamarBlue with further incubation at 37° C. For the XTT assay, absorbance was measured at 500 nm, 4 h after addition of XTT. Fluorescence with excitation at 544 nm and emission at 590 nm were measured 24 h after addition of AlamarBlue.
# [2] = system: Mgat5^+/+(2.6) mammary carcinoma cells; assay: Nuclear Smad2/3 and Erk-p (TGF-β / EGF sensitivity) in Mgat5^+/+(2.6) cells; assay type: cell-based, mice; details: Mgat5^+/+(2.6) cells in culture, 1% FBS, steady state
# MvLu cells = assay: Steady-state nuclear Smad2-p and Erk-p, MvLu cells; assay type: cell-based; details: MvLu cells in culture, 1% FBS
# DR26 cells = assay: Steady-state nuclear Smad2-p and Erk-p, DR26 cells; assay type: cell-based; details: DR26 cells in culture, 1% FBS
# [3] = system: TGF-β induced Smad2/3 nuclear translocation; assay: TGF-β-dependent Smad2/3 nuclear translocation assay in NMuMG cells; assay type: cell-based, Murine
# Description: NMuMG epithelial cells were plated in 96 well Coming tissue plates (Coming) at a density of 5000 cells/well in 100 μl of DMEM, 10% FBS, 10 μg/ml insulin (Gibco) for 24 h. The medium was replaced with 100 μl of DMEM, 10 μg/ml insulin, 0.2 mg/ml BSA (fraction V) for 18 h. Test compounds at 10 μM were added and cells were incubated for 60 min at 37° C. TGF-β1 (R&D System, Minneapolis, Minn.) was added at 50 pM and incubated for a further 50 min. Cells were then fixed with 4% paraformaldehyde in PBS for 15 min and washed 3 times in PBS. Cells were permeabilized with 100% methanol for 2 min, then washed 3 times with PBS, followed by the addition of 150 μl PBS, 10% FBS. Plates were stored overnight at 4° C. Anti-Smad2/3 or anti-phospho-Smad2 antibodies (Transduction Laboratories, San Jose, Calif.) diluted 1:1000 in PBS plus 10% FBS were added at 50 μl/well and the plates were incubated for 1 h at 20° C. […] The wells were washed 3 times with PBS and imaged and quantified on the Array Scan (Cellomics Inc., Pittsburgh, Pa.) using the cytoplasmic-nuclear translocation program. To measure Erk phosphorylation (Erk-p) and nuclear translocation, mouse anti-phospho-Erkl/2 (Thr202/Tyr204) (Sigma, St. Louis, Mo.) was added at 1/1000 in PBS plus 10% FBS for 1 h at 20° C. The nuclear-cytoplasmic difference was determined for 100 cells per well, generating a mean±SE for each condition.
substance,measurement,setting,value
TGF-β: transforming growth factor-beta cytokine; TGF-β1 (R&D System) used as stimulus and growth comparator,cell growth (cell number),[1],inhibited
same,basal nuclear Erk-p,[2],enhanced
same,basal nuclear Smad2-p,[2],not altered
same,basal nuclear Erk-p,MvLu cells,a decline or no change
same,basal nuclear Smad2-p,MvLu cells,increased slightly
same,basal nuclear Erk-p,DR26 cells,a decline or no change
same,basal nuclear Smad2-p,DR26 cells,not altered
same,increase in nuclear Smad2/3 protein,"[3]; 20 min after addition of cytokine, sustained until 50 min",10 fold
same,saturation of Smad2/3 nuclear translocation,[3]; dose of 50 pM,~80%
